Structures can show the parent of a compound that is named as a salt. Where two headings read alike, the source gives them in different places.
How the values were obtained:
Test in all cases: AK assay 384-well format, Prestwick library screening
[1] = tested on: A. baumannii strain 98-37-09; format: cell-based, Acinetobacter baumannii; conditions: Acinetobacter baumannii, 983709, 3 h
P. aeruginosa = format: cell-based, Pseudomonas aeruginosa; conditions: Pseudomonas aeruginosa, 3 h
E. coli = format: cell-based, Escherichia coli; conditions: Escherichia coli, 3 h, 50 μM final drug concentration
E. faecium = format: cell-based, Enterococcus faecium; conditions: Enterococcus faecium, 3 h
E. cloacae = format: cell-based, Enterobacter cloacae; conditions: Enterobacter cloacae, 3 h
K. pneumoniae = format: cell-based, Klebsiella pneumoniae; conditions: Klebsiella pneumoniae, 3 h
[2] = tested on: S. aureus strain USA300-0114; format: cell-based, Staphylococcus aureus; conditions: Staphylococcus aureus, USA300, 3 h
[3] = 50 μM final drug concentration, cutoff for positive-scoring molecules 3-fold increase, read-out: AK-based Prestwick Library Screening Results, A. baumannii (fold increase in extracellular AK activity)
[4] = 50 μM final drug concentration, cutoff for positive-scoring molecules 3-fold increase, read-out: AK-based Prestwick Library Screening Results, P. aeruginosa (fold increase in extracellular AK activity)
[5] = cutoff for positive-scoring molecules 3-fold increase, read-out: AK-based Prestwick Library Screening Results, E. coli (fold increase in extracellular AK activity)
[6] = 50 μM final drug concentration, cutoff for positive-scoring molecules 3-fold increase, read-out: AK-based Prestwick Library Screening Results, E. faecium (fold increase in extracellular AK activity)
[7] = 50 μM final drug concentration, cutoff for positive-scoring molecules 3-fold increase, read-out: AK-based Prestwick Library Screening Results, E. cloacae (fold increase in extracellular AK activity)
[8] = 50 μM final drug concentration, cutoff for positive-scoring molecules 3-fold increase, read-out: AK-based Prestwick Library Screening Results, K. pneumoniae (fold increase in extracellular AK activity)
[9] = 50 μM final drug concentration, cutoff for positive-scoring molecules 3-fold increase, read-out: AK-based Prestwick Library Screening Results, S. aureus (fold increase in extracellular AK activity)
[10] = planktonic A. baumannii, 50 μM final drug concentration, 384-well, cutoff for positive-scoring molecules 3-fold increase, read-out: AK-based Prestwick Library Screening Results: A. baumannii (increase in extracellular AK activity)
[11] = planktonic P. aeruginosa, 50 μM final drug concentration, 384-well, cutoff for positive-scoring molecules 3-fold increase, read-out: AK-based Prestwick Library Screening Results: P. aeruginosa (increase in extracellular AK activity)
[12] = planktonic E. coli, 384-well, cutoff for positive-scoring molecules 3-fold increase, read-out: AK-based Prestwick Library Screening Results: E. coli (increase in extracellular AK activity)
[13] = planktonic E. faecium, 50 μM final drug concentration, 384-well, cutoff for positive-scoring molecules 3-fold increase, read-out: AK-based Prestwick Library Screening Results: E. faecium (increase in extracellular AK activity)
[14] = planktonic E. cloacae, 50 μM final drug concentration, 384-well, cutoff for positive-scoring molecules 3-fold increase, read-out: AK-based Prestwick Library Screening Results: E. cloacae (increase in extracellular AK activity)
[15] = planktonic K. pneumoniae, 50 μM final drug concentration, 384-well, cutoff for positive-scoring molecules 3-fold increase, read-out: AK-based Prestwick Library Screening Results: K. pneumoniae (increase in extracellular AK activity)
[16] = planktonic S. aureus, 50 μM final drug concentration, 384-well, cutoff for positive-scoring molecules 3-fold increase, read-out: AK-based Prestwick Library Screening Results: S. aureus (increase in extracellular AK activity)
[17] = 50 μM final drug concentration, planktonic, cutoff for positive-scoring molecules 3-fold increase, read-out: AK-based Prestwick Library Screening Results, A. baumannii (fold increase in extracellular AK activity)
[18] = 50 μM final drug concentration, planktonic, cutoff for positive-scoring molecules 3-fold increase, read-out: AK-based Prestwick Library Screening Results, P. aeruginosa (fold increase in extracellular AK activity)
[19] = planktonic, cutoff for positive-scoring molecules 3-fold increase, read-out: AK-based Prestwick Library Screening Results, E. coli (fold increase in extracellular AK activity)
[20] = 50 μM final drug concentration, planktonic, cutoff for positive-scoring molecules 3-fold increase, read-out: AK-based Prestwick Library Screening Results, E. faecium (fold increase in extracellular AK activity)
[21] = 50 μM final drug concentration, planktonic, cutoff for positive-scoring molecules 3-fold increase, read-out: AK-based Prestwick Library Screening Results, E. cloacae (fold increase in extracellular AK activity)
[22] = 50 μM final drug concentration, planktonic, cutoff for positive-scoring molecules 3-fold increase, read-out: AK-based Prestwick Library Screening Results, K. pneumoniae (fold increase in extracellular AK activity)
[23] = 50 μM final drug concentration, planktonic, cutoff for positive-scoring molecules 3-fold increase, read-out: AK-based Prestwick Library Screening Results, S. aureus (fold increase in extracellular AK activity)
[24] = 50 μM final drug concentration, 384-well format, cutoff for positive-scoring molecules 3-fold increase, read-out: AK-based Prestwick Library Screening Results, A. baumannii (increase in extracellular AK activity)
[25] = 50 μM final drug concentration, 384-well format, cutoff for positive-scoring molecules 3-fold increase, read-out: AK-based Prestwick Library Screening Results, P. aeruginosa (increase in extracellular AK activity)
[26] = 384-well format, cutoff for positive-scoring molecules 3-fold increase, read-out: AK-based Prestwick Library Screening Results, E. coli (increase in extracellular AK activity)
[27] = 50 μM final drug concentration, 384-well format, cutoff for positive-scoring molecules 3-fold increase, read-out: AK-based Prestwick Library Screening Results, E. faecium (increase in extracellular AK activity)
[28] = 50 μM final drug concentration, 384-well format, cutoff for positive-scoring molecules 3-fold increase, read-out: AK-based Prestwick Library Screening Results, E. cloacae (increase in extracellular AK activity)
[29] = 50 μM final drug concentration, 384-well format, cutoff for positive-scoring molecules 3-fold increase, read-out: AK-based Prestwick Library Screening Results, K. pneumoniae (increase in extracellular AK activity)
[30] = 50 μM final drug concentration, 384-well format, cutoff for positive-scoring molecules 3-fold increase, read-out: AK-based Prestwick Library Screening Results, S. aureus (increase in extracellular AK activity)

`COc1ccc(NS(=O)(=O)c2ccc(N)cc2)nn1` [Sulfamethoxypyridazine] was tested, and the fold induction at 50 µM ([1]; 50 μM final drug concentration, planktonic, cutoff for positive 3-fold increase, read-out: AK-based Prestwick Library Screening Results, A. baumannii (fold increase in extracellular AK activity)) was 0.7, the fold induction at 50 µM (P. aeruginosa; 50 μM final drug concentration, planktonic, cutoff for positive 3-fold increase, read-out: AK-based Prestwick Library Screening Results, P. aeruginosa (fold increase in extracellular AK activity)) was 0.3 and the fold induction at 50 µM (E. coli; planktonic, cutoff for positive 3-fold increase, read-out: AK-based Prestwick Library Screening Results, E. coli (fold increase in extracellular AK activity)) was 0.5. The fold induction at 50 µM (E. faecium; 50 μM final drug concentration, planktonic, cutoff for positive 3-fold increase, read-out: AK-based Prestwick Library Screening Results, E. faecium (fold increase in extracellular AK activity)) was 0.9, the fold induction at 50 µM (E. cloacae; 50 μM final drug concentration, planktonic, cutoff for positive 3-fold increase, read-out: AK-based Prestwick Library Screening Results, E. cloacae (fold increase in extracellular AK activity)) was 0.3 and the fold induction at 50 µM (K. pneumoniae; 50 μM final drug concentration, planktonic, cutoff for positive 3-fold increase, read-out: AK-based Prestwick Library Screening Results, K. pneumoniae (fold increase in extracellular AK activity)) was 0.5. It also gave a fold induction at 50 µM ([2]; 50 μM final drug concentration, planktonic, cutoff for positive 3-fold increase, read-out: AK-based Prestwick Library Screening Results, S. aureus (fold increase in extracellular AK activity)) of 0.4.
In the case of `CC(C(=O)O)c1cccc(C(=O)c2ccccc2)c1` (centres unmarked) [Ketoprofen], the fold induction at 50 µM ([1]; read-out: AK-based Prestwick Library Screening Results: A. baumannii (increase in extracellular AK activity)) is reported as 1, the fold induction at 50 µM (P. aeruginosa; read-out: AK-based Prestwick Library Screening Results: P. aeruginosa (increase in extracellular AK activity)) is reported as 1 and the fold induction at 50 µM (E. coli; planktonic E. coli, 384-well, […], read-out: AK-based Prestwick Library Screening Results: E. coli (increase in extracellular AK activity)) is reported as 1.1. For the same compound, the fold induction at 50 µM (E. faecium; read-out: AK-based Prestwick Library Screening Results: E. faecium (increase in extracellular AK activity)) was 0.9, the fold induction at 50 µM (E. cloacae; read-out: AK-based Prestwick Library Screening Results: E. cloacae (increase in extracellular AK activity)) was 1.5 and the fold induction at 50 µM (K. pneumoniae; read-out: AK-based Prestwick Library Screening Results: K. pneumoniae (increase in extracellular AK activity)) was 1.1. For the same compound, the fold induction at 50 µM ([2]; read-out: AK-based Prestwick Library Screening Results: S. aureus (increase in extracellular AK activity)) was 1.
For `CN1CCC(OC(c2ccccc2)c2ccccc2)CC1` [Diphenylpyraline hydrochloride], the fold induction at 50 µM [1, 3] was 1.3, the fold induction at 50 µM (P. aeruginosa; [4]) was 1.1 and the fold induction at 50 µM (E. coli; [5]) was 1.3. The fold induction at 50 µM (E. faecium; [6]) was 1.1, the fold induction at 50 µM (E. cloacae; [7]) was 1.4 and the fold induction at 50 µM (K. pneumoniae; [8]) was 1. The fold induction at 50 µM [2, 9] was 1.2.
Compound `Clc1ccc(COC(Cn2ccnc2)c2ccc(Cl)cc2Cl)cc1` (centres unmarked) [Econazole nitrate] has a fold induction at 50 µM [1, 10] of 6.7, a fold induction at 50 µM (P. aeruginosa; [11]) of 1.3 and a fold induction at 50 µM (E. coli; [12]) of 1.3. It also gave a fold induction at 50 µM (E. faecium; [13]) of 1.5, a fold induction at 50 µM (E. cloacae; [14]) of 1.3 and a fold induction at 50 µM (K. pneumoniae; [15]) of 1.3. For the same compound, the fold induction at 50 µM [2, 16] was 3.7.
Work on `O=C(O)c1ccccc1OP(=O)(O)O` [Fosfosal] yielded a fold induction at 50 µM [1, 17] of 0.8, a fold induction at 50 µM (P. aeruginosa; [18]) of 0.7 and a fold induction at 50 µM (E. coli; [19]) of 0.7. It also gave a fold induction at 50 µM (E. faecium; [20]) of 0.9, a fold induction at 50 µM (E. cloacae; [21]) of 0.8 and a fold induction at 50 µM (K. pneumoniae; [22]) of 0.6. It also gave a fold induction at 50 µM [2, 23] of 0.7.
`CC(=O)OCC(=O)[C@@]1(O)[C@H](C)C[C@H]2[C@@H]3CCC4=CC(=O)C=C[C@]4(C)[C@@]3(F)[C@@H](O)C[C@@]21C` [Dexamethasone acetate] gave a fold induction at 50 µM [1, 10] of 1.1, a fold induction at 50 µM (P. aeruginosa; [11]) of 1 and a fold induction at 50 µM (E. coli; [12]) of 1.4. It also gave a fold induction at 50 µM (E. faecium; [13]) of 1.2, a fold induction at 50 µM (E. cloacae; [14]) of 1.2 and a fold induction at 50 µM (K. pneumoniae; [15]) of 1.1. For the same compound, the fold induction at 50 µM [2, 16] was 1.2.
In the case of `Cc1cccc(N(C)C(=S)Oc2ccc3ccccc3c2)c1` [Tolnaftate], the fold induction at 50 µM [1, 10] is reported as 1.5, the fold induction at 50 µM (P. aeruginosa; [11]) is reported as 1 and the fold induction at 50 µM (E. coli; [12]) is reported as 1.1. It also gave a fold induction at 50 µM (E. faecium; [13]) of 1, a fold induction at 50 µM (E. cloacae; [14]) of 1.2 and a fold induction at 50 µM (K. pneumoniae; [15]) of 0.9. It also gave a fold induction at 50 µM [2, 16] of 1.3.
`Cc1cc(=O)oc2cc(O)ccc12` [Hymecromone] gave a fold induction at 50 µM [1, 17] of 0.8, a fold induction at 50 µM (P. aeruginosa; [18]) of 1 and a fold induction at 50 µM (E. coli; [19]) of 0.9. The fold induction at 50 µM (E. faecium; [20]) was 1, the fold induction at 50 µM (E. cloacae; [21]) was 1.1 and the fold induction at 50 µM (K. pneumoniae; [22]) was 0.7. The fold induction at 50 µM [2, 23] was 1.
`O=C(O)CN(CCN(CC(=O)O)CC(=O)O)CCN(CC(=O)O)CC(=O)O` [Pentetic acid] was tested, and the fold induction at 50 µM [1, 3] was 1.3, the fold induction at 50 µM (P. aeruginosa; [4]) was 1.2 and the fold induction at 50 µM (E. coli; [5]) was 1.3. For the same compound, the fold induction at 50 µM (E. faecium; [6]) was 1, the fold induction at 50 µM (E. cloacae; [7]) was 1.5 and the fold induction at 50 µM (K. pneumoniae; [8]) was 1.1. For the same compound, the fold induction at 50 µM [2, 9] was 1.4.
With `COc1c2occc2c(OC)c2c(=O)cc(C)oc12` [Khellin] the fold induction at 50 µM [1, 24] was 0.7, the fold induction at 50 µM (P. aeruginosa; [25]) was 0.7 and the fold induction at 50 µM (E. coli; [26]) was 0.6. For the same compound, the fold induction at 50 µM (E. faecium; [27]) was 0.9, the fold induction at 50 µM (E. cloacae; [28]) was 0.7 and the fold induction at 50 µM (K. pneumoniae; [29]) was 0.6. For the same compound, the fold induction at 50 µM [2, 30] was 0.7.
In the case of `C[C@H](N)[C@H](O)c1cccc(O)c1` [Metaraminol bitartrate], the fold induction at 50 µM [1, 24] is reported as 0.9, the fold induction at 50 µM (P. aeruginosa; [25]) is reported as 0.8 and the fold induction at 50 µM (E. coli; [26]) is reported as 1. It also gave a fold induction at 50 µM (E. faecium; [27]) of 1, a fold induction at 50 µM (E. cloacae; [28]) of 1.3 and a fold induction at 50 µM (K. pneumoniae; [29]) of 0.8. The fold induction at 50 µM [2, 30] was 0.7.

— patent publication US10004701B2, “Methods and compositions for treating infection” (UNIVERSITY OF ROCHESTER, priority 2012, dated 2018)
